Measurements published in patent publication US11667632B2, “2-(1H-indazol-3-yl)-3H-imidazo[4,5-C]pyridines and their anti-inflammatory uses thereof” (BioSplice Therapeutics, Inc., priority 2015, dated 2023).

Key:
IL-8 = test: Inhibition of IL-8 in LPS-stimulated primary PBMCs (MSD U-plex); assay type: cell-based; settings: human PBMCs, LPS (500 ng/mL), Compound 10 (150 nM), 24 hrs; MSD platform; FIG. 15
Procedure: (§1) Primary peripheral blood mononuclear cells (PBMCs) freshly isolated from healthy human donors were obtained from AllCells Inc. and utilized for assays immediately. Compound 10 was dissolved in DMSO as a 10 mM stock and used to prepare compound source plates. A serial dilution (8-point dose-response) and compound transfer was performed using the ECHO 550 (Labcyte, Sunnyvale, Calif.) into 96-well clear bottom assay plates (Greiner Bio-One) with appropriate DMSO backfill for a final DMSO concentration of 0.05%. PBMCs were plated at 2×10e^5 cells/well in Roswell Park Memorial Institute (RPMI) 1640 Medium (Catalog #21870-100, Buffalo, N.Y.) with 1% L-glutamine, 1% HEPES, 1% Sodium Pyruvate, 2% Sodium Bicarbonate supplemented with 100 units/mL penicillin, 50 μg/mL streptomycin and 1% fetal bovine serum (Catalog #16140089, Life Technologies, Carlsbad, Calif.). […]
(§2) Supernatants were diluted appropriately for ELISA. […] Following several washes to remove unbound avidin-HRP, the TMB substrate was added and the plates were read on the Cytation 3 plate reader (Biotek Inc., Winooski, Vt.) at an absorbance of 450 nm with correction at 570 nm. […] Inhibition profile and EC50 was calculated using Prism 5 (GraphPad Software Inc, La Jolla, Calif., USA). […] Levels of cytokines were calculated using software form Meso Scale Discovery.

[1] = Plasma concentrations after a single intra-articular injection of radiolabeled Compound 10 in rats; assay type: in vivo, Sprague Dawley (SD) rats; settings: SD rats, single IA injection 1 μg/knee
Procedure: Plasma concentration and distribution of Compound 10 following a single IA injection in Sprague Dawley (SD) rats were investigated in radiolabeled and mass balance studies with a tritium-labeled (^3H) Compound 10. [^3H]-Compound 10 was formulated as a suspension in 0.5% carboxymethylcellulose/0.05% polysorbate 80 for intra-articular (IA) injection and diluted with unlabeled Compound 10 to the appropriate concentration and injected in the rat knee joint at a dose level equivalent to 1 μg/knee.

[2] = system: Tumor Necrosis Factor Alpha (TNF-α); test: Inhibition of TNF-α secretion in IL-1β-stimulated synovial fibroblasts (SW982), ELISA; assay type: cell-based; settings: human synovial fibroblasts stimulated with IL-1β, treated 24 hrs, FIG. 14A
Procedure: Synovial fibroblasts (SW982 cells; ATCC) were cultured in Leibovitz's L-15 Medium (ATCC) with 10% FBS at 37° C. and 0% CO2. 24 hours before the start of the assay, media was changed to Leibovitz's L-15 Medium with […]. Compound 10 was dissolved in DMSO as a 10 mM stock and used to prepare compound source plates. A serial dilution (8-point dose-response) and compound transfer was performed using the ECHO 550 (Labcyte, Sunnyvale, Calif.) into 96-well clear bottom assay plates (Greiner Bio-One) with appropriate DMSO backfill for a final DMSO concentration of 0.05%. […] Plates were spun in a centrifuge for 1 minute at 10,000 rpm and supernatants were collected for ELISA.
Supernatants were diluted 1:1 for the TNFα assay and 1:4 for the IL6 assay using the assay medium. ELISA was performed using Human TNF-α ELISA MAX™ Deluxe (Catalog #430204, Biolegend, San Diego, Calif.) and Human IL-6 ELISA MAX™ Deluxe (Catalog #430504, Biolegend, San Diego, Calif.) kits. […] Following several washes to remove unbound avidin-HRP, the TMB substrate was added and the plates were read on the Cytation 3 plate reader (Biotek Inc., Winooski, Vt.) at an absorbance of 450 nm with correction at 570 nm. […] Inhibition profile and EC50 was calculated using Prism 5 (GraphPad Software Inc, La Jolla, Calif., USA).

IL-5 = test: Inhibition of IL-5 in LPS-stimulated primary PBMCs (MSD U-plex); assay type: cell-based; settings: human PBMCs, LPS (500 ng/mL), Compound 10 (150 nM), 24 hrs; MSD platform; FIG. 15
Procedure: as §1, §2

IL-1β = test: Inhibition of IL-1β in LPS-stimulated primary PBMCs (MSD U-plex); assay type: cell-based; settings: human PBMCs, LPS (500 ng/mL), Compound 10 (150 nM), 24 hrs; MSD platform; FIG. 15
Procedure: as §1, §2

IL-2 = test: Inhibition of IL-2 in LPS-stimulated primary PBMCs (MSD U-plex); assay type: cell-based; settings: human PBMCs, LPS (500 ng/mL), Compound 10 (150 nM), 24 hrs; MSD platform; FIG. 15
Procedure: as §1, §2

IFN-γ = test: Inhibition of IFN-γ in LPS-stimulated primary PBMCs (MSD U-plex); assay type: cell-based; settings: human PBMCs, LPS (500 ng/mL), Compound 10 (150 nM), 24 hrs; MSD platform; FIG. 15
Procedure: as §1, §2

[3] = Persistence of radiolabeled Compound 10 in rabbit knee joints; assay type: in vivo; settings: rabbits; two single IA injections in two knees at 4 μg/knee; after 1 hour up to 168 hours
Interleukin 1β (IL1β) = test: Inhibition of inflammatory cytokine expression in IL-1β-stimulated synovial fibroblasts, qRT-PCR; assay type: cell-based; settings: human synovial fibroblasts, IL-1β (100 ng/mL), Compound 10 at 100 nM and 30 nM, 24 hrs; FIG. 14B
Procedure: Synovial fibroblasts were plated in 6-well plates at 0.5 million cells per well in Leibovitz's L-15 Medium with 1% FBS. Compound 10 dissolved in DMSO was added to the wells at different concentrations. […] Cells were harvested by trypsinization, pelleted, washed with PBS and Total RNA was isolated using RNeasy Mini Kit (Qiagen). cDNA was synthesized using the QuantiTect Reverse Transcription kit (Qiagen). qRT-PCR was performed with QuantiTect SYBR Green PCR Kit (Qiagen) and gene-specific primers, using CFX384 (Biorad). Transcripts were quantitated by comparative Ct method and normalized to endogenous controls, β-actin and GAPDH.

IL-6 = test: Inhibition of IL-6 in LPS-stimulated primary PBMCs (ELISA, MSD U-plex); assay type: cell-based; settings: human PBMCs, LPS (500 ng/mL), Compound 10 (150 nM), 24 hrs; MSD platform; FIG. 15
Procedure: as §1, §2

CC(C)CC(=O)Nc1cncc(-c2ccc3[nH]nc(-c4nc5c(-c6cccc(F)c6)cncc5[nH]4)c3c2)c1 [Compound 10]
Inhibition of IL-8 (IL-8): Inhibition
Mean radioactivity exposure AUC(0-inf) ([1]; females): 1.818 ng-equiv.h/g
Mean radioactivity exposure AUC(0-t) ([1]; females): 1.040 ng-equiv.h/g
Tmax ([1]; females): 4 h
apparent terminal elimination half-life in the blood ([1]; females): 124 h
Mean radioactivity exposure AUC(0-inf.) ([1]; males): 1.548 ng-equiv.h/g
Mean radioactivity exposure AUC(0-t) ([1]; males): 0.832 ng-equiv.h/g
Tmax ([1]; males): 1 h
apparent terminal elimination half-life in the blood ([1]; males): 57 h
inhibition of TNF-a secretion [2]: inhibition
Inhibition of IL-5 (IL-5): Inhibition
Inhibition of IL-1β (IL-1β): Inhibition
Inhibition of IL-2 (IL-2): Inhibition
Inhibition of IFN-γ (IFN-γ): Inhibition
administered radioactivity recovered in the knee [3]: 75%
inhibition of inflammatory cytokine secretion (qRT-PCR) (Interleukin 1β (IL1β)): inhibition
Inhibition of IL-6 (IL-6): Inhibition
